Measurements: patent US12110289B2, “Heterocyclic compounds, preparation methods and uses thereof” (InventisBio Co., Ltd., priority 2020, dated 2024)

test system: Lung cancer cell line NCI-H358 containing KRas G12C mutation; test: Assay for cell proliferation (Cell-titer Glo, 5 days); type: cell-based, human; details: Homo sapiens, NCI-H358, 120 h, NCI-H358, 5 days, Cell-titer Glo; read-out: IC50 (nM), Inhibition of NCI-H358 Cell Proliferation
Protocol: One hundred fifty microliter (150 μL) of media containing 2000 cells per well were seeded into each well of a 96-well culture plate and left to attach overnight in a 37° C. incubator with 5% CO2. Diluted compounds of 0.75 μL for each well were added by liquid handler at a final concentration of 0.5% DMSO. Cells were treated for 5 days in the incubator. Cell-titer Glo (CTG) kit (Promega) was used to assess cell proliferation. Of note, 120 μL of CTG reagent was added to each well and incubated at RT for 10 minutes.

| SMILES | IC50 |
| --- | --- |
| C=CC(=O)N1C[C@H](C)N(c2nc(=O)n(-c3c(C(C)C)ncnc3C(C)C)c3nc(-c4c(N)cccc4F)c(F)cc23)C[C@H]1C [4-((2S,5R)-4-acryloyl-2,5-dimethylpiperazin-1-yl)-7-(2-amino-6-fluorophenyl)-1-(4,6-diisopropylpyrimidin-5-yl)-6-fluoropyrido[2,3-d]pyrimidin-2(1H)-one] | 5.3 nM |
| C=CC(=O)N1C[C@H](C)N(c2nc(=O)n(-c3c(C(C)C)ncnc3C(C)C)c3nc(-c4c(N)cccc4F)c(Cl)cc23)C[C@H]1C [4-((2S,5R)-4-acryloyl-2,5-dimethylpiperazin-1-yl)-7-(2-amino-6-fluorophenyl)-6-chloro-1-(4,6-diisopropylpyrimidin-5-yl)pyrido[2,3-d]pyrimidin-2(1H)-one] | 1.6 nM |
| C=CC(=O)N1C[C@H](C)N(c2nc(=O)n(-c3c(C(C)C)ncnc3C(C)C)c3nc(-c4ccccc4F)c(F)cc23)C[C@H]1C [4-((2S,5R)-4-acryloyl-2,5-dimethylpiperazin-1-yl)-7-(2-fluorophenyl)-1-(4,6-diisopropylpyrimidin-5-yl)-6-fluoropyrido[2,3-d]pyrimidin-2(1H)-one] | 19 nM |
| C=CC(=O)N1C[C@H](C)N(c2nc(=O)n(-c3c(C(C)C)ncnc3C(C)C)c3nc(-c4ccccc4F)c(Cl)cc23)C[C@H]1C [4-((2S,5R)-4-acryloyl-2,5-dimethylpiperazin-1-yl)-7-(2-fluorophenyl)-6-chloro-1-(4,6-diisopropylpyrimidin-5-yl)pyrido[2,3-d]pyrimidin-2(1H)-one] | 4 nM |
| C=CC(=O)N1CCN(c2nc(=O)n(-c3c(C(C)C)ncnc3C(C)C)c3nc(-c4ccccc4F)c(Cl)cc23)C[C@@H]1CC#N [Compound 2] | 23.9 nM |
| C=CC(=O)N1CCN(c2nc(=O)n(-c3c(C4CC4)ncnc3C3CC3)c3nc(-c4cccc5[nH]nc(N)c45)c(Cl)cc23)[C@@H](C)C1 [Compound 3] | 661 nM |
| C=CC(=O)N1CCN(c2nc(=O)n(-c3c(C4CC4)ncnc3C3CC3)c3nc(-c4ccccc4F)c(Cl)cc23)C[C@@H]1CC#N [Compound 5] | 172 nM |
| C=CC(=O)N1CCN(c2nc(=O)n(-c3c(C(C)C)nc(N4CCC4)nc3C(C)C)c3nc(-c4ccccc4F)c(Cl)cc23)[C@@H](C)C1 [Compound 7] | 30.6 nM |
| C=CC(=O)N1CCN(c2nc(=O)n(-c3c(C(C)C)nc(NC)nc3C(C)C)c3nc(-c4ccccc4F)c(Cl)cc23)[C@@H](C)C1 [Compound 11] | 9.2 nM |
| C=CC(=O)N1CCN(c2nc(=O)n(-c3c(C(C)C)nc(N(C)C)nc3C(C)C)c3nc(-c4ccccc4F)c(Cl)cc23)[C@@H](C)C1 [Compound 12] | 107 nM |
| C=CC(=O)N1CCN(c2nc(=O)n(-c3c(C(C)C)nc(OCC(C)(C)O)nc3C(C)C)c3nc(-c4ccccc4F)c(Cl)cc23)[C@@H](C)C1 [Compound 16] | 8 nM |
| C=CC(=O)N1CCN(c2nc(=O)n(-c3c(C(C)C)nc(OC4CCN(C)C4)nc3C(C)C)c3nc(-c4ccccc4F)c(Cl)cc23)[C@@H](C)C1 (stereo partly drawn) [Compound 17] | 14.4 nM |
| C=CC(=O)N1CCN(c2nc(=O)n(-c3c(C(C)C)nc(OC4CN(C)C4)nc3C(C)C)c3nc(-c4ccccc4F)c(Cl)cc23)[C@@H](C)C1 [Compound 18] | 16 nM |
| C=CC(=O)N1CCN(c2nc(=O)n(-c3c(C(C)C)nc(OCC(C)O)nc3C(C)C)c3nc(-c4ccccc4F)c(Cl)cc23)[C@@H](C)C1 (stereo partly drawn) [Compound 19] | 5 nM |
| C=CC(=O)N1[C@H](C)CN(c2nc(=O)n(-c3c(C(C)C)nc(OCCN(C)C)nc3C(C)C)c3nc(-c4ccccc4F)c(Cl)cc23)C[C@@H]1C [Compound 31] | 28.2 nM |
| C=CC(=O)N1CCN(c2nc(=O)n(-c3c(C(C)C)nc(OCCOC)nc3C(C)C)c3nc(-c4ccccc4F)c(Cl)cc23)[C@@H](C)C1 [Compound 32] | 8.5 nM |
| C=CC(=O)N1CCN(c2nc(=O)n(-c3c(C(C)C)nc(C)nc3C(C)C)c3nc(-c4ccccc4F)c(F)cc23)[C@@H](C)C1 [Compound 48] | 25.8 nM |
| C=CC(=O)N1C[C@H](C)N(c2nc(=O)n(-c3c(C(C)C)nc(C)nc3C(C)C)c3nc(-c4ccccc4F)c(F)cc23)C[C@H]1C [Compound 49] | 25 nM |

Other lines, results leading:

| IC50 | SMILES |
| --- | --- |
| 130 nM | C=CC(=O)N1CCN(c2nc(=O)n(-c3c(C4CC4)ncnc3C3CC3)c3nc(-c4ncccc4F)c(Cl)cc23)[C@@H](C)C1 [Compound 4] |
| 52.5 nM | C=CC(=O)N1CCN(c2nc(=O)n(-c3c(C4CC4)nc(C#N)nc3C3CC3)c3nc(-c4c(O)cccc4F)c(F)cc23)[C@@H](C)C1 [Compound 25] |
| 168 nM | C=CC(=O)N1CCN(c2nc(=O)n(-c3c(C4CC4)nc(C#N)nc3C3CC3)c3nc(-c4ccccc4F)c(F)cc23)[C@@H](C)C1 [Compound 26] |
| 69.9 nM | C=CC(=O)N1CCN(c2nc(=O)n(-c3c(C4CC4)nc(C)nc3C3CC3)c3nc(-c4ccccc4F)c(F)cc23)[C@@H](C)C1 [Compound 27] |
| 52.7 nM | C=CC(=O)N1CCN(c2nc(=O)n(-c3c(C4CC4)nc(N)nc3C3CC3)c3nc(-c4ccccc4F)c(F)cc23)[C@@H](C)C1 [Compound 30] |
| 67.5 nM | C=CC(=O)N1CCN(c2nc(=O)n(-c3c(C4CC4)nc(NCCN(C)C)nc3C3CC3)c3nc(-c4ccccc4F)c(F)cc23)[C@@H](C)C1 [Compound 33] |
| 58.3 nM | C=CC(=O)N1CCN(c2nc(=O)n(-c3c(C4CC4)nc(N4CC(N(C)C)C4)nc3C3CC3)c3nc(-c4ccccc4F)c(F)cc23)[C@@H](C)C1 [Compound 34] |
| 58.2 nM | C=CC(=O)N1CCN(c2nc(=O)n(-c3c(C4CC4)nc(NC(C)=O)nc3C3CC3)c3nc(-c4ccccc4F)c(F)cc23)[C@@H](C)C1 [Compound 35] |
| > 3000 nM | C=CC(=O)N1CCN(c2nc(=O)n(-c3c(C4CC4)ncnc3C3CC3)c3nc(-c4cccc5[nH]nc(N)c45)c(F)cc23)[C@@H](C)C1 [Compound 36] |
| > 3000 nM | C=CC(=O)N1C[C@H](C)N(c2nc(=O)n(-c3c(C4CC4)ncnc3C3CC3)c3nc(-c4cccc5[nH]nc(N)c45)c(F)cc23)C[C@H]1C [Compound 37] |
| > 3000 nM | C=CC(=O)N1[C@H](C)CN(c2nc(=O)n(-c3c(C4CC4)ncnc3C3CC3)c3nc(-c4cccc5[nH]nc(N)c45)c(F)cc23)C[C@@H]1C [Compound 38] |
| 38.2 nM | C=CC(=O)N1CCN(c2nc(=O)n(-c3c(C4CC4)ncnc3C3CC3)c3nc(-c4ccccc4F)c(F)cc23)[C@@H](C)C1 [Compound 39] |
| 39.5 nM | C=CC(=O)N1C[C@H](C)N(c2nc(=O)n(-c3c(C4CC4)ncnc3C3CC3)c3nc(-c4ccccc4F)c(F)cc23)C[C@H]1C [Compound 42] |
| 15.5 nM | C=CC(=O)N1C[C@H](C)N(c2nc(=O)n(-c3c(C4CC4)ncnc3C3CC3)c3nc(-c4c(O)cccc4F)c(F)cc23)C[C@H]1C [Compound 43] |
| 299 nM | C=CC(=O)N1[C@H](C)CN(c2nc(=O)n(-c3c(C4CC4)ncnc3C3CC3)c3nc(-c4ccccc4F)c(F)cc23)C[C@@H]1C [Compound 45] |
| 81.5 nM | C=CC(=O)N1[C@H](C)CN(c2nc(=O)n(-c3c(C4CC4)ncnc3C3CC3)c3nc(-c4c(O)cccc4F)c(F)cc23)C[C@@H]1C [Compound 46] |
| 23.8 nM | C=CC(=O)N1[C@H](C)CN(c2nc(=O)n(-c3c(C4CC4)ncnc3C3CC3)c3nc(-c4c(N)cccc4F)c(F)cc23)C[C@@H]1C [Compound 47] |
| 107 nM | C=CC(=O)N1C[C@H](C)N(c2nc(=O)n(-c3c(C4CC4)nc(C)nc3C3CC3)c3nc(-c4ccccc4F)c(F)cc23)C[C@H]1C [Compound 50] |
| 12.5 nM | C=CC(=O)N1C[C@H](C)N(c2nc(=O)n(-c3c(C4CC4)nc(C)nc3C3CC3)c3nc(-c4c(N)cccc4F)c(F)cc23)C[C@H]1C [Compound 51] |
| 617 nM | C=CC(=O)N1[C@H](C)CN(c2nc(=O)n(-c3c(C4CC4)nc(C)nc3C3CC3)c3nc(-c4ccccc4F)c(F)cc23)C[C@@H]1C [Compound 53] |
| 34.6 nM | C=CC(=O)N1[C@H](C)CN(c2nc(=O)n(-c3c(C4CC4)nc(C)nc3C3CC3)c3nc(-c4c(N)cccc4F)c(F)cc23)C[C@@H]1C [Compound 54] |
| 74.3 nM | C=CC(=O)N1[C@H](C)CN(c2nc(=O)n(-c3c(C4CC4)nc(C)nc3C3CC3)c3nc(-c4c(O)cccc4F)c(F)cc23)C[C@@H]1C [Compound 55] |

same assay, conditions: NCI-H358, 5 days, Cell-titer Glo; read-out: IC50 (nM), Inhibition of NCI-H358 Cell Proliferation

| IC50 | SMILES |
| --- | --- |
| 0.9 nM | C=CC(=O)N1C[C@H](C)N(c2nc(=O)n(-c3c(F)cc4c(ncn4C)c3C3CC3)c3nc(-c4c(N)cccc4F)c(Cl)cc23)C[C@H]1C (single isomer, unassigned) [Compound 178] |
| 1.7 nM | C=CC(=O)N1C[C@H](C)N(c2nc(=O)n(-c3c(C(C)C)nc4c(ncn4C)c3C)c3nc(-c4ccccc4F)c(Cl)cc23)C[C@H]1C (single isomer, unassigned) [Compound 182] |
| 27.4 nM | C=CC(=O)N1C[C@H](C)N(c2nc(=O)n(-c3c(C(C)C)nc4c(ncn4C)c3C)c3nc(-c4c(N)cccc4F)c(Cl)cc23)C[C@H]1C (single isomer, unassigned) [Compound 183] |
| 0.2 nM | C=CC(=O)N1C[C@H](C)N(c2nc(=O)n(-c3c(C(C)C)nc4c(ncn4C)c3C)c3nc(-c4c(N)cccc4F)c(Cl)cc23)C[C@H]1C (single isomer, unassigned) [Compound 184] |
| 21.7 nM | C=CC(=O)N1C[C@H](C)N(c2nc(=O)n(-c3c(C(C)C)nc4c(ncn4C)c3C)c3nc(-c4c(O)cccc4F)c(Cl)cc23)C[C@H]1C (single isomer, unassigned) [Compound 185] |
| 0.9 nM | C=CC(=O)N1C[C@H](C)N(c2nc(=O)n(-c3c(C(C)C)nc4c(ncn4C)c3C)c3nc(-c4c(O)cccc4F)c(Cl)cc23)C[C@H]1C (single isomer, unassigned) [Compound 186] |
| 38.5 nM | C=CC(=O)N1C[C@H](C)N(c2nc(=O)n(-c3c(C4CC4)ncnc3C3CC3)c3nc(-c4ccccc4F)c(F)cc23)C[C@H]1C [Compound 42] |

same assay, conditions: NCI-H358 IC50 comparison

| SMILES | fold more potent: 2-amino-6-fluoro-phenyl compound vs. corresponding 2-fluoro-phenyl compound at R8 |
| --- | --- |
| C=CC(=O)N1C[C@H](C)N(c2nc(=O)n(-c3c(C(C)C)ncnc3C(C)C)c3nc(-c4c(N)cccc4F)c(Cl)cc23)C[C@H]1C [4-((2S,5R)-4-acryloyl-2,5-dimethylpiperazin-1-yl)-7-(2-amino-6-fluorophenyl)-6-chloro-1-(4,6-diisopropylpyrimidin-5-yl)pyrido[2,3-d]pyrimidin-2(1H)-one] | only slightly more potent |
